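Exposure lasted 48 hours, with cells grown in 96-well plates and compounds tested at five concentrations. At the GI50, growth is halved. TGI denotes the concentration required for complete inhibition of growth.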
Tests used:
Experiment in all cases: NCI-60 cell line screen, 48 h
[1] = tested on: RXF 393 renal
[2] = tested on: ACHN renal
[3] = tested on: UO-31 renal
[4] = tested on: SK-MEL-28 melanoma
[5] = tested on: HCC-2998 colon
[6] = tested on: OVCAR-3 ovarian
[7] = tested on: HCT-116 colon
[8] = tested on: IGROV1 ovarian
[9] = tested on: SN12C renal
[10] = tested on: TK-10 renal
[11] = tested on: MOLT-4 leukemia
[12] = tested on: T-47D breast
[13] = tested on: EKVX NSCLC
[14] = tested on: MDA-MB-231 breast
[15] = tested on: SF-295 CNS
[16] = tested on: NCI-H522 lung
[17] = tested on: NCI-H23 lung
[18] = tested on: A549 NSCLC
[19] = tested on: NCI/ADR-RES ovarian
[20] = tested on: LOX IMVI melanoma
[21] = tested on: HCT-15 colon
[22] = tested on: KM12 colon
[23] = tested on: DU-145 prostate
[24] = tested on: SNB-75 CNS
[25] = tested on: SNB-19 CNS
[26] = tested on: HOP-92 NSCLC
[27] = tested on: MDA-MB-435
[28] = tested on: A498 renal
[29] = tested on: U251 CNS
[30] = tested on: 786-0 renal
[31] = tested on: SW-620 colon
[32] = tested on: HL-60(TB) leukemia
[33] = tested on: UACC-257 melanoma
[34] = tested on: SK-MEL-5 melanoma
[35] = tested on: SF-268 CNS
[36] = tested on: RPMI-8226 leukemia
[37] = tested on: SF-539 CNS
[38] = tested on: MALME-3M melanoma
[39] = tested on: OVCAR-5 ovarian
[40] = tested on: SK-OV-3 ovarian
[41] = tested on: MCF7 breast
[42] = tested on: K-562 leukemia
[43] = tested on: HT29 colon
[44] = tested on: SK-MEL-2 melanoma
[45] = tested on: HOP-62 NSCLC
[46] = tested on: CAKI-1 renal
[47] = tested on: OVCAR-4 ovarian
[48] = tested on: UACC-62 melanoma
[49] = tested on: NCI-H460 lung
[50] = tested on: PC-3 prostate
[51] = tested on: BT-549 breast
[52] = tested on: NCI-H226 lung
[53] = tested on: M14 melanoma
[54] = tested on: OVCAR-8 ovarian
[55] = tested on: CCRF-CEM leukemia
[56] = tested on: COLO 205 colon
[57] = tested on: HS 578T breast
[58] = tested on: SR leukemia

## COc1cccc(-c2nc(-c3ccc(NC(=O)OC(C)C)cc3)[nH]c2-c2ccnc(Br)c2)c1
[1]
  GI50: 0.282 µM
  TGI: 0.87 µM
[2]
  GI50: 2.7 µM
  TGI: > 100 µM
[3]
  GI50: 2.51 µM
  TGI: > 100 µM
[4]
  GI50: 2.55 µM
  TGI: > 100 µM
[5]
  GI50: 2.71 µM
  TGI: > 100 µM
[6]
  GI50: 2.83 µM
  TGI: > 100 µM
[7]
  GI50: 2.68 µM
  TGI: > 100 µM
[8]
  GI50: 3.54 µM
  TGI: > 100 µM
[9]
  GI50: 2.94 µM
  TGI: > 100 µM
[10]
  GI50: 3.61 µM
  TGI: > 100 µM
[11]
  GI50: 1.64 µM
  TGI: 56 µM
[12]
  GI50: 2.08 µM
  TGI: 7.64 µM
[13]
  GI50: 2.45 µM
  TGI: 10.3 µM
[14]
  GI50: 3.85 µM
  TGI: > 100 µM
[15]
  GI50: 0.256 µM
  TGI: 0.64 µM
[16]
  GI50: 2.48 µM
  TGI: 9.01 µM
[17]
  GI50: 2.61 µM
  TGI: 9.54 µM
[18]
  GI50: 2.96 µM
  TGI: > 100 µM
[19]
  GI50: 2.85 µM
  TGI: > 100 µM
[20]
  GI50: 1.49 µM
  TGI: 3.36 µM
[21]
  GI50: 1.19 µM
  TGI: 4.79 µM
[22]
  GI50: 2.41 µM
  TGI: > 100 µM
[23]
  GI50: 3.33 µM
  TGI: > 100 µM
[24]
  GI50: 0.567 µM
  TGI: > 100 µM
[25]
  GI50: 3.19 µM
  TGI: > 100 µM
[26]
  GI50: 3.19 µM
  TGI: 8.29 µM
[27]
  GI50: 3.11 µM
  TGI: > 100 µM
[28]
  GI50: 1.2 µM
  TGI: 6.29 µM
[29]
  GI50: 1.69 µM
  TGI: > 100 µM
[30]
  GI50: 0.974 µM
  TGI: > 100 µM
[31]
  GI50: 3.32 µM
  TGI: > 100 µM
[32]
  GI50: 1.38 µM
  TGI: 4.06 µM
[33]
  GI50: 3.15 µM
  TGI: > 100 µM
[34]
  GI50: 1.88 µM
  TGI: 3.65 µM
[35]
  GI50: 3.35 µM
  TGI: > 100 µM
[36]
  GI50: 0.389 µM
  TGI: 2.21 µM
[37]
  GI50: 1.53 µM
  TGI: 5.83 µM
[38]
  GI50: 2.23 µM
  TGI: 7 µM
[39]
  GI50: 4.43 µM
  TGI: > 100 µM
[40]
  GI50: 3.85 µM
  TGI: > 100 µM
[41]
  GI50: 1.59 µM
  TGI: 8.15 µM
[42]
  GI50: 1.88 µM
  TGI: > 100 µM
[43]
  GI50: 2.37 µM
  TGI: > 100 µM
[44]
  GI50: 2.33 µM
  TGI: 7.03 µM
[45]
  GI50: 2.92 µM
  TGI: > 100 µM
[46]
  GI50: 2.49 µM
  TGI: > 100 µM
[47]
  GI50: 3.09 µM
  TGI: > 100 µM
[48]
  GI50: 1.98 µM
  TGI: 4.87 µM
[49]
  GI50: 2.99 µM
  TGI: > 100 µM
[50]
  GI50: 2.62 µM
  TGI: > 100 µM
[51]
  GI50: 2.19 µM
  TGI: > 100 µM
[52]
  GI50: 2.46 µM
  TGI: 87.5 µM
[53]
  GI50: 3.06 µM
  TGI: > 100 µM
[54]
  GI50: 3.12 µM
  TGI: > 100 µM
[55]
  GI50: 2.22 µM
  TGI: > 100 µM
[56]
  GI50: 3.26 µM
  TGI: > 100 µM
[57]
  GI50: 0.308 µM
  TGI: 1.69 µM

## Nc1cc(NN=C(c2ccc(O)cc2)c2ccc(O)cc2)c([N+](=O)[O-])cc1[N+](=O)[O-]
[1]
  GI50: 1.59 µM
  TGI: 3.15 µM
[2]
  GI50: 1.86 µM
  TGI: 5.55 µM
[3]
  GI50: 1.81 µM
  TGI: 4.87 µM
[4]
  GI50: 1.6 µM
  TGI: 3.56 µM
[5]
  GI50: 1.57 µM
  TGI: 3.51 µM
[6]
  GI50: 1.81 µM
  TGI: 4.14 µM
[7]
  GI50: 2 µM
  TGI: 4.23 µM
[8]
  GI50: 2.28 µM
  TGI: 5.38 µM
[9]
  GI50: 1.58 µM
  TGI: 3.4 µM
[10]
  GI50: 2.22 µM
  TGI: 6.98 µM
[11]
  GI50: 2.76 µM
  TGI: 7.69 µM
[13]
  GI50: 2.42 µM
  TGI: 7.45 µM
[14]
  GI50: 2.22 µM
  TGI: 5.38 µM
[15]
  GI50: 1.4 µM
  TGI: 2.91 µM
[16]
  GI50: 2.46 µM
  TGI: 6.51 µM
[17]
  GI50: 2.31 µM
  TGI: 6.07 µM
[18]
  GI50: 2.29 µM
  TGI: 5.69 µM
[19]
  GI50: 3.49 µM
  TGI: 11.6 µM
[20]
  GI50: 1.65 µM
  TGI: 3.1 µM
[21]
  GI50: 1.78 µM
  TGI: 4.13 µM
[22]
  GI50: 1.52 µM
  TGI: 2.85 µM
[23]
  GI50: 1.64 µM
  TGI: 2.99 µM
[24]
  GI50: 1.45 µM
  TGI: 3.92 µM
[25]
  GI50: 2.32 µM
  TGI: 7.12 µM
[26]
  GI50: 2.18 µM
  TGI: 8.2 µM
[27]
  GI50: 1.7 µM
  TGI: 3.44 µM
[28]
  GI50: 1.69 µM
  TGI: 3.55 µM
[29]
  GI50: 1.93 µM
  TGI: 4.15 µM
[30]
  GI50: 1.83 µM
  TGI: 3.43 µM
[31]
  GI50: 1.58 µM
  TGI: 2.93 µM
[32]
  GI50: 3.04 µM
  TGI: 14 µM
[33]
  GI50: 4.3 µM
  TGI: 17.1 µM
[34]
  GI50: 1.52 µM
  TGI: 2.85 µM
[35]
  GI50: 1.73 µM
  TGI: 3.45 µM
[36]
  GI50: 2.15 µM
  TGI: 6.46 µM
[37]
  GI50: 1.7 µM
  TGI: 3.85 µM
[38]
  GI50: 2.45 µM
  TGI: 5.96 µM
[39]
  GI50: 2.85 µM
  TGI: 8.44 µM
[40]
  GI50: 2.35 µM
  TGI: 6.4 µM
[41]
  GI50: 1.56 µM
  TGI: 3.28 µM
[42]
  GI50: 3.62 µM
  TGI: 31.7 µM
[43]
  GI50: 2.63 µM
  TGI: 8.19 µM
[45]
  GI50: 2.13 µM
  TGI: 3.98 µM
[46]
  GI50: 1.88 µM
  TGI: 5.24 µM
[58]
  GI50: 2.03 µM
  TGI: 7.48 µM
[47]
  GI50: 2.54 µM
  TGI: 7.47 µM
[48]
  GI50: 1.66 µM
  TGI: 3.01 µM
[49]
  GI50: 1.79 µM
  TGI: 3.47 µM
[50]
  GI50: 3.31 µM
  TGI: 12.4 µM
[51]
  GI50: 2.46 µM
  TGI: 6.78 µM
[53]
  GI50: 1.71 µM
  TGI: 3.49 µM
[54]
  GI50: 3.12 µM
  TGI: 15.1 µM
[55]
  GI50: 2.54 µM
  TGI: 6.13 µM
[56]
  GI50: 1.85 µM
  TGI: 4.49 µM

Source: PubChem BioAssay (NCI)
